Key:
[1] = test system: PBMCs; test: TNFα production by PBMCs with antigen-expressing tumor cells (AlphaLISA); type: cell-based, human; details: PBMCs with SKBR3 tumor cells (HER2), 24 hours, FIG. 20
Method: Anti-HER2-antiCD40 G1 antibody was prepared as described in Example 18. Pertuzumab was used as the HER2 G1WT antibody. Conjugates were prepared as generally described in Example 15. PBMCs were isolated from human blood as described above. Briefly, PBMCs were isolated by Ficoll gradient centrifugation, resuspended in RPMI, and plated in 96-well flat bottom microtiter plates (125,000/well). Antigen-expressing tumor cells were then added (25,000/well) along with titrating concentrations of conjugates or unconjugated parental antibodies as controls. After overnight culture, supernatants were harvested, and TNFα levels were determined by AlphaLISA.
Referring to FIG. 20, SKBR3 tumor cells were added to PBMCs, prepared as described above. SKBR3 tumor cells express the tumor antigen HER2. Anti-HER2 TLR8 benzazepine agonist conjugates, either monospecific or bispecific with CD40, and conjugated to various TLR8 benzazepine agonists were added. The immune-stimulatory compound-linkers in the conjugates used in the study are identified in TABLES 30 and 31.

[2] = test system: monocytes; test: TNFα production by monocytes with or without tumor cells (AlphaLISA); type: cell-based, human; details: monocytes with CEA-expressing CHO cells, FIG. 22
Method: Monocytes were prepared as follows: PBMCs were isolated from normal human blood using Ficoll purification, and monocytes were enriched from the PBMCs using Stem Cell Technologies Human Monocyte without CD16 Depletion Negative Selection Kits according to the manufacturer's instructions. Monocytes were then slowly frozen and stored in liquid nitrogen. Prior to assay monocytes were thawed and rested overnight at 37° C. in 5% CO2 in assay media (RPMI 1640 media supplemented with 10% FBS, […], 1 mM HEPES, 1× non-essential amino acids, 0.1 mM sodium pyruvate). The following day, monocytes were plated at 4×10^4 cell/well with or without tumor cells at 4×10^4 cell/well in 96-well flat bottom plates in assay media described above. After overnight culture, supernatants were harvested, and TNFα levels were determined by AlphaLISA.

Substance: Pertuzumab [HER2 G1WT, reference compound]
- TNFα production [1]: did not stimulate TNFα production
- TNFα production [2]: only the CEA conjugate exhibited activity
